Target: human CRTH2 receptor (Homo sapiens (Human), UniProt Q9Y5Y4)
Assay: CRTH2 receptor radioligand binding assay (SPA, [3H]-PGD2 displacement)
Settings: antagonistic activities of selected compounds
Protocol: The binding of CRTH2 antagonists is determined using membranes prepared from Chinese hamster ovary cells (CHO-K1 cells) transfected with the human CRTH2 receptor (CHO-K1-hCRTH2 cells, Perkin Elmer, Cat No ES-561-C). To produce cell membranes the CHO-K1-hCRTH2 cells are cultured in suspension in CHO SFMII medium supplemented with 400 μg/ml G418. The cells are harvested by centrifugation at 300 g for 10 min at room temperature. The cell pellet is resuspended in Phosphate Buffer Saline (PBS) including a protease inhibitor mix (Complete, Roche) and adjusted to a concentration of 10E7 cells/ml. The CHO-K1-hCRTH2 cells are disrupted by nitrogen […] to obtain the membrane preparation. Cell debris is removed by centrifugation (500 g at 4° C., 30 min) and the supernatant is transferred into fresh tubes followed by a second centrifugation at 40000 g for 1 h at 4° C. to sediment the membranes. The membranes are suspended in SPA incubation buffer (50 mM Tris HCl, 10 mM MgCl2, 150 mM NaCl, 1 mM EDTA, pH 7.4) without bovine serum albumin, homogenized by passing through a single use needle (Terumo, 23G×1″), and stored in aliquots at −80° C.
The CRTH2 receptor binding assay is performed in a scintillation proximity assay (SPA) format with the radioligand [^3H]-PGD2 (Perkin Elmer, NET616000MC). CHO-K1-hCRTH2 cell membranes are again homogenized by passing through a single use needle (Terumo, 23G×1″) and diluted in SPA incubation buffer in suitable concentrations (0.5-10 μg protein/well). The SPA assay is set up in 96 well microtiter plates (Perkin Elmer, CatNo. 6005040) in SPA incubation buffer with a final volume of 200 μl per well and final concentration of 50 mM Tris-HCl, 10 mM MgCl2, 150 mM NaCl, 1 mM EDTA pH 7.4, 0.1% bovine serum albumin). The SPA assay mixture contains 60 μl of the membrane suspension, 80 μl of Wheat Germ Agglutinin coated PVT beads (GE Healthcare, RPNQ-0001, 0.3 mg/well), 40 μl of [^3H]-PGD2 diluted in SPA buffer to a final concentration of 1 nM (50 000 dpm) and 20 μl of the test compound (dissolved in dimethylsulfoxid). The SPA assay mixture is incubated for 3 h at room temperature. Bound radioactivity is determined with a scintillation counter (Micro Beta Trilux, Wallac).
The binding of [^3H]-PGD2 to CHO-K1-hCRTH2 cell membranes is determined in the absence (total binding, Bo) and presence (non-specific binding, NSB) of unlabelled PGD2 (1 μM, Cayman Chemical, Cat No 12010) or a reference CRTH2 antagonist (10 μM CAY10471, Cayman Chemical, Cat No 10006735).
Determination of the affinity of a test compound is calculated by subtraction of the non-specific binding (NSB) from the total binding (Bo) or the binding in the presence of the test compound (B) at a given compound concentration. The NSB value is set to 100% inhibition. The Bo−NSB value is set to 0% inhibition.
% inhibition values were obtained at a defined compound concentration, e.g. at 1 μM, % inhibition of the test compound was calculated by the formula 100−((B−NSB)*100/(Bo−NSB)). % inhibition values above 100% are founded by assay variance.

human CRTH2 receptor, sequence (Q9Y5Y4 whole entry): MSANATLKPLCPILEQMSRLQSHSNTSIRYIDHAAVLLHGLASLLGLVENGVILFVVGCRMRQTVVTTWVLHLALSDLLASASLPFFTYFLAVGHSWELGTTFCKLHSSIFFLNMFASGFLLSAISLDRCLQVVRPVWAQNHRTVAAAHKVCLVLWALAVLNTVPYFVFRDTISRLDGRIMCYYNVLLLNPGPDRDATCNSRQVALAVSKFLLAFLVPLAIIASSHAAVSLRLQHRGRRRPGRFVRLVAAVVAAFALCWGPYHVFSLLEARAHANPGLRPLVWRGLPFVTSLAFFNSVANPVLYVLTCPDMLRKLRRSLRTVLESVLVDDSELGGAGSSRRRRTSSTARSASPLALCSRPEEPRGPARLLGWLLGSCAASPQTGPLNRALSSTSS

| Ki | SMILES |
| --- | --- |
| 0.8 nM | Cc1nn(Cc2ccc(-c3cc4ccc(Cl)cc4[nH]3)cc2)c(C)c1CC(=O)O [Compound 1, (1-[4-(6-Chloro-1H-indol-2-yl)-benzyl]-3,5-dimethyl-1H-pyrazol-4-yl)-acetic Acid] |
| 11.3 nM | Cc1nn(Cc2ccc(-c3cc4cc(C(F)(F)F)ccc4[nH]3)cc2)c(C)c1CC(=O)O [Compound 2] |
| 4.2 nM | Cc1nn(Cc2ccc(-c3cc4cc(Cl)ccc4[nH]3)cc2)c(C)c1CC(=O)O [Compound 3] |
| 0.3 nM | Cc1nn(Cc2ccc(-c3cc4ccc(C(F)(F)F)cc4[nH]3)cc2)c(C)c1CC(=O)O [Compound 4] |
| 0.5 nM | Cc1nn(Cc2ccc(-c3cc4ccc(C(F)(F)F)cc4[nH]3)cc2F)c(C)c1CC(=O)O [Compound 5] |
| 0.8 nM | Cc1nn(Cc2ccc(-c3cc4ccc(Cl)cc4[nH]3)cc2F)c(C)c1CC(=O)O [Compound 6] |
| 397 nM | Cc1nn(Cc2cccc(-c3cc4ccc(Cl)cc4[nH]3)c2)c(C)c1CC(=O)O [Compound 7] |
| 394 nM | Cc1nn(Cc2ccccc2-c2cc3ccc(Cl)cc3[nH]2)c(C)c1CC(=O)O [Compound 8] |
| 97.8 nM | Cc1nn(Cc2cccc(-c3cc4ccc(C(F)(F)F)cc4[nH]3)c2)c(C)c1CC(=O)O [Compound 9] |
| 308 nM | Cc1nn(Cc2ccc(-c3cc4ncccc4[nH]3)cc2)c(C)c1CC(=O)O [Compound 10] |
| 0.7 nM | Cc1nn(Cc2ccc(-c3cc4ccc(C(F)(F)F)cc4[nH]3)cc2C(F)(F)F)c(C)c1CC(=O)O [Compound 11] |
| 155 nM | Cc1nn(Cc2ccc(-c3cc4cccnc4[nH]3)cc2F)c(C)c1CC(=O)O [Compound 12] |
| 13.4 nM | Cc1nn(Cc2ccc(-c3nc4ccccc4[nH]3)cc2)c(C)c1CC(=O)O [Compound 14] |
| 2.3 nM | CCc1nn(Cc2ccc(-c3nc4ccccc4[nH]3)cc2)c(CC)c1CC(=O)O [Compound 15] |
| 0.2 nM | CCc1nn(Cc2ccc(-c3nc4cc(Cl)c(Cl)cc4[nH]3)cc2)c(CC)c1CC(=O)O [Compound 16] |
| 1.2 nM | Cc1nn(Cc2ccc(-c3nc4cc(Cl)c(Cl)cc4[nH]3)cc2)c(C)c1CC(=O)O [Compound 17] |
| 0.8 nM | Cc1nn(Cc2ccc(-c3nc4cc5ccccc5cc4[nH]3)cc2)c(C)c1CC(=O)O [Compound 18] |
| 0.1 nM | CCc1nn(Cc2ccc(-c3nc4cc5ccccc5cc4[nH]3)cc2)c(CC)c1CC(=O)O [Compound 19] |
| 1.4 nM | Cc1nn(Cc2ccc(-c3nc4ccc(C(F)(F)F)cc4[nH]3)cc2)c(C)c1CC(=O)O [Compound 21] |
| 21.9 nM | Cc1cc(Cn2nc(C)c(CC(=O)O)c2C)ccc1-c1nc2ccccc2[nH]1 [Compound 22] |
| 1.9 nM | Cc1nn(Cc2ccc(-c3nc4cc(Cl)ccc4[nH]3)cc2)c(C)c1CC(=O)O [Compound 24] |

| Ki | SMILES |
| --- | --- |
| 176 nM | Cc1nn(Cc2ccc(-c3nc4cc(Cl)ccc4n3C)cc2)c(C)c1CC(=O)O [Compound 25] |
| 22.6 nM | CCc1nn(Cc2ccc(-c3nc4cncc(C)c4[nH]3)cc2)c(CC)c1CC(=O)O [Compound 26] |
| 0.4 nM | CCc1nn(Cc2ccc(-c3nc4cc(F)c(Cl)cc4[nH]3)cc2)c(CC)c1CC(=O)O [Compound 27] |
| 646 nM | Cc1nn(Cc2ccc(-c3nc4c(C)cncc4[nH]3)cc2)c(C)c1CC(=O)O [Compound 29] |
| 753 nM | Cc1nn(Cc2ccc(-c3nc4ccccc4n3C)cc2)c(C)c1CC(=O)O [Compound 30] |
| 118 nM | Cc1nn(Cc2ccc(-c3nc4cccnc4[nH]3)cc2)c(C)c1CC(=O)O [Compound 31] |
| 1.2 nM | Cc1nn(Cc2ccc(-c3nc4cc(Br)ccc4[nH]3)cc2)c(C)c1CC(=O)O [Compound 32] |
| 0.5 nM | Cc1nn(Cc2ccc(-c3nc4cc(C(C)(C)C)ccc4[nH]3)cc2)c(C)c1CC(=O)O [Compound 33] |
| 3.7 nM | CCc1nn(Cc2ccc(-c3nc4cc(C#N)ccc4[nH]3)cc2)c(CC)c1CC(=O)O [Compound 34] |
| 66.7 nM | CCc1nn(Cc2ccc(-c3nc4cc(Cl)c(Cl)cc4n3C)cc2)c(CC)c1CC(=O)O [Compound 35] |
| 5.6 nM | Cc1nn(Cc2ccc(-c3nc4c(F)cc(F)cc4[nH]3)cc2)c(C)c1CC(=O)O [Compound 36] |
| 85.4 nM | CCc1nn(Cc2ccc(-c3nc4cncnc4[nH]3)cc2)c(CC)c1CC(=O)O [Compound 37] |
| 7.4 nM | Cc1nn(Cc2ccc(-c3nc4cc(Br)cnc4[nH]3)cc2)c(C)c1CC(=O)O [Compound 38] |
| 1.3 nM | CCc1nn(Cc2ccc(-c3nc4cc(OC)ccc4[nH]3)cc2)c(CC)c1CC(=O)O [Compound 39] |
| 12.4 nM | Cc1nn(Cc2ccc(-c3nc4cc(Cl)cnc4[nH]3)cc2)c(C)c1CC(=O)O [Compound 40] |
| 4.8 nM | Cc1ccc2[nH]c(-c3ccc(Cn4nc(C)c(CC(=O)O)c4C)cc3)nc2c1 [Compound 41] |
| 1.7 nM | CCc1nn(Cc2ccc(-c3nc4cc(Cl)cnc4[nH]3)cc2)c(CC)c1CC(=O)O [Compound 42] |
| 1.1 nM | CCc1nn(Cc2ccc(-c3nc4c(F)c(F)ccc4[nH]3)cc2)c(CC)c1CC(=O)O [Compound 43] |
| 9.6 nM | COc1ccc2[nH]c(-c3ccc(Cn4nc(C)c(CC(=O)O)c4C)cc3)nc2n1 [Compound 44] |
| 0.3 nM | CCc1nn(Cc2ccc(-c3nc4cc(Cl)ccc4[nH]3)cc2)c(CC)c1CC(=O)O [Compound 45] |
| 340 nM | CCc1nn(Cc2ccc(-c3nc4ccccc4n3C)cc2)c(CC)c1CC(=O)O [Compound 46] |

| Ki | SMILES |
| --- | --- |
| 4.9 nM | Cc1nn(Cc2ccc(-c3nc4c(F)c(F)ccc4[nH]3)cc2)c(C)c1CC(=O)O [Compound 47] |
| 12.9 nM | CCc1nn(Cc2ccc(-c3nc4cccnc4[nH]3)cc2)c(CC)c1CC(=O)O [Compound 48] |
| 1.1 nM | CCc1nn(Cc2ccc(-c3nc4c(F)cc(F)cc4[nH]3)cc2)c(CC)c1CC(=O)O [Compound 50] |
| 2.2 nM | CCc1nn(Cc2ccc(-c3nc4c(C)cccc4[nH]3)cc2)c(CC)c1CC(=O)O [Compound 51] |
| 8.7 nM | Cc1nn(Cc2ccc(-c3nc4c(F)cccc4[nH]3)cc2)c(C)c1CC(=O)O [Compound 52] |
| 2.3 nM | Cc1nn(Cc2ccc(-c3nc4cc(F)c(Cl)cc4[nH]3)cc2)c(C)c1CC(=O)O [Compound 53] |
| 1.1 nM | Cc1cc2nc(-c3ccc(Cn4nc(C)c(CC(=O)O)c4C)cc3)[nH]c2cc1Cl [Compound 54] |
| 0.5 nM | CCc1nn(Cc2ccc(-c3nc4cc(C)c(Cl)cc4[nH]3)cc2)c(CC)c1CC(=O)O [Compound 55] |
| 1.3 nM | CCc1nn(Cc2ccc(-c3nc4cc(F)ccc4[nH]3)cc2)c(CC)c1CC(=O)O [Compound 56] |
| 1.5 nM | CCc1nn(Cc2ccc(-c3nc4cc(Br)cnc4[nH]3)cc2)c(CC)c1CC(=O)O [Compound 57] |
| 1.3 nM | CCc1nn(Cc2ccc(-c3nc4cc(C)ccc4[nH]3)cc2)c(CC)c1CC(=O)O [Compound 58] |
| 7.6 nM | COc1ccc2[nH]c(-c3ccc(Cn4nc(C)c(CC(=O)O)c4C)cc3)nc2c1 [Compound 59] |
| 299 nM | Cc1nn(Cc2ccc(-c3nc4ccncc4[nH]3)cc2)c(C)c1CC(=O)O [Compound 60] |
| 56.4 nM | CCc1nn(Cc2ccc(-c3nc4ccncc4[nH]3)cc2)c(CC)c1CC(=O)O [Compound 61] |
| 18.4 nM | Cc1nn(Cc2ccc(-c3nc4cc(C#N)ccc4[nH]3)cc2)c(C)c1CC(=O)O [Compound 62] |
| 10 nM | Cc1nn(Cc2ccc(-c3nc4c(C)cccc4[nH]3)cc2)c(C)c1CC(=O)O [Compound 63] |
| 3.1 nM | CCc1nn(Cc2ccc(-c3nc4nc(OC)ccc4[nH]3)cc2)c(CC)c1CC(=O)O [Compound 64] |
| 0.4 nM | CCc1nn(Cc2ccc(-c3nc4c(Cl)cc(Cl)cc4[nH]3)cc2)c(CC)c1CC(=O)O [Compound 65] |
| 1 nM | Cc1nn(Cc2ccc(-c3nc4c(Cl)cc(Cl)cc4[nH]3)cc2)c(C)c1CC(=O)O [Compound 66] |

| SMILES | Ki |
| --- | --- |
| CCc1nn(Cc2ccc(-c3nc4ccc(C(F)(F)F)cc4[nH]3)cc2)c(CC)c1CC(=O)O [Compound 20] | 0.2 nM |

— patent US9206164B2, “Pyrazole compounds as CRTH2 antagonists” (Boehringer Ingelheim International GmbH, priority 2011, dated 2015)
